According to paper PMC5607274, “An iterative compound screening contest method for identifying target protein inhibitors using the tyrosine-protein kinase Yes” (Scientific Reports, 2017):

These compounds were tested against T1, human recombinant Yes [a.a. 2–543 (end)] (Homo sapiens, UniProt P07947) (assay: ADP-Glo kinase assay, inhibition rates of Yes phosphorylation activity (first and second screening)). Details: first screening; mean of n = 4 wells; 10 μmol L−1 compound.
T1 construct: human recombinant Yes [a.a; 2–543 (end)]; purchased BPS Bioscience 40488
T1 sequence (P07947 2-543): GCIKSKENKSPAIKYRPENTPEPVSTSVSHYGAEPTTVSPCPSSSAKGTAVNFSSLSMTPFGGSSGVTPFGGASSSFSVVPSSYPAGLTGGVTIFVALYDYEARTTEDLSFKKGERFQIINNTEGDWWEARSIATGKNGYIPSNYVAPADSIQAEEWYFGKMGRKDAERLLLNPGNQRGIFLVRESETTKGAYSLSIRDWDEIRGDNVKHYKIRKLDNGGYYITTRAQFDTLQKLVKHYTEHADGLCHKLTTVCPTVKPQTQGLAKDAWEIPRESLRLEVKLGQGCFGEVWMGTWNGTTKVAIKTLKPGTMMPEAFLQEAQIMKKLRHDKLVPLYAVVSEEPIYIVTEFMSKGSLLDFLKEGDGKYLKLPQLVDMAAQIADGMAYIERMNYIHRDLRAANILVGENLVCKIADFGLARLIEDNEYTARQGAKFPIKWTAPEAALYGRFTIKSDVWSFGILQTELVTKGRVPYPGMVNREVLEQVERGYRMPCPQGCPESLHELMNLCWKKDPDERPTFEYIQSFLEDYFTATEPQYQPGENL
Type: biochemical
Procedure: All inhibitory assays of the phosphorylation activity of Yes were performed in accordance with the Promega Technical Manual for the ADP-Glo™ Kinase Assay (Fitchburg, WI, USA. Catalog number: V9102). The human recombinant Yes [a.a. 2–543 (end)] was purchased from BPS Bioscience (catalog number: 40488). The details of the assay protocol and reagent information are given elsewhere.
The screening was conducted in three steps consisting of the first screening, the second screening, and the IC50 determination, as can be illustrated in Fig. 1b. First, we determined the inhibition rates of the 1,991 compounds. Each compound was placed in 4 wells of a 384-well plate. In total, 80 compounds were assayed on one plate and the other wells were used for positive and negative controls. The compounds were randomly placed on plates so that compounds proposed by one group were not placed on a plate together. A mean of four inhibition rates for each compound was compared to criteria for the first screening. […] Second, the inhibition rates of the screened compounds were determined on one plate using the same procedure of the first screening, where compounds were dissolved from fresh powder. […] Screened compounds were then evaluated for their IC50 values.
For `Cc1cccc(-c2nn(-c3ccccc3)cc2C(=O)N(C)CC(=O)Nc2ccc(N3CCOCC3)cc2)c1` [Compound Z26593505], the “First screening IR (inhibition rate)” value was 2%.
`COc1ccc(C(CNC(=O)c2ccc3c(c2)NC(=O)C(C)S3)N(C)C)cc1` (centres unmarked) [Compound Z26596638] was tested, and the “First screening IR (inhibition rate)” value was 27%.
`O=C(c1cn(Cc2ccccc2)nc1-c1cccnc1)N1CCN(c2ccccn2)CC1` [Compound Z26735071] was tested, and the “First screening IR (inhibition rate)” value was 21%.
For `O=C(CN(Cc1ccccc1)S(=O)(=O)c1ccc(Cl)cc1)N1CCN(c2ccccn2)CC1` [Compound Z26735553], the “First screening IR (inhibition rate)” value was 16%.
In the case of `O=C(NCc1nc2ccccc2[nH]1)c1ccc(OCc2ccccc2)cc1` [Compound Z26780414], the “First screening IR (inhibition rate)” value was 5%.
For `O=C(COc1ccccc1)NCc1nc2ccccc2[nH]1` [Compound Z26782031], the “First screening IR (inhibition rate)” value was -12%.
For `O=C(Nc1ccc2[nH]c(=O)[nH]c2c1)c1cc2c(s1)-c1ccccc1CC2` [Compound Z26792816], the “First screening IR (inhibition rate)” value was 4%.
In the case of `NC(=O)Nc1ccc(C(=O)NCCC(c2ccccc2)c2ccccc2)cc1` [Compound Z26815125], the “First screening IR (inhibition rate)” value was -8%.
With `Cc1cccc(N2CCN(C(=O)C3CCN(C(=O)C4CC4)CC3)CC2)c1C` [Compound Z26849648] the “First screening IR (inhibition rate)” value was -2%.
In the case of `CNS(=O)(=O)c1cc(C(=O)N2CCN(Cc3cc(OC)ccc3OC)CC2)ccc1Cl` [Compound Z26970092], the “First screening IR (inhibition rate)” value was 28%.
In the case of `CN(CC(=O)Nc1cccc(F)c1)C(=O)c1cc2ccccc2cc1O` [Compound Z26987740], the “First screening IR (inhibition rate)” value was 21%.
For `O=C(Nc1ccccc1OC(F)F)c1ccc2c(c1)C(=O)N(Cc1ccncc1)C2=O` [Compound Z27081729], the “First screening IR (inhibition rate)” value was 20%.
For `O=C(Cc1cn2ccsc2n1)NCCN1C(=O)S/C(=C/c2cccnc2)C1=O` [Compound Z27116942], the “First screening IR (inhibition rate)” value was 12%.
With `N#Cc1ccccc1S(=O)(=O)N1CCN(C(=O)/C=C/c2ccc3c(c2)OCCCO3)CC1` [Compound Z27234574] the “First screening IR (inhibition rate)” value was 36%.
With `Cc1cccc(NC(=O)CNC(=O)c2cn3c(C)cccc3n2)c1C` [Compound Z27271554] the “First screening IR (inhibition rate)” value was 3%.
In the case of `Cc1cc(OCC(=O)NC(C)c2ccc(-n3ccnc3)cc2)ccc1C(C)C` (centres unmarked) [Compound Z27305591], the “First screening IR (inhibition rate)” value was -7%.
For `COc1cc(C(=O)NC(C)c2ccc(-n3ccnc3)cc2)cc(Cl)c1OC(C)C` (centres unmarked) [Compound Z27306302], the “First screening IR (inhibition rate)” value was 7%.
With `CC(NC(=O)C(NC(=O)c1ccco1)C(C)C)c1ccc(-n2ccnc2)cc1` (centres unmarked) [Compound Z27306758] the “First screening IR (inhibition rate)” value was 4%.
`Cc1ccc(C(C)C)c(OCC(=O)NC(C)c2ccc(-n3ccnc3)cc2)c1` (centres unmarked) [Compound Z27307326] was tested, and the “First screening IR (inhibition rate)” value was 11%.
With `CCc1ccccc1NC(=O)CNC(=O)c1cc2ccccc2[nH]1` [Compound Z27562098] the “First screening IR (inhibition rate)” value was 48%.
For `CCOc1ccc(-n2c(O)c3ccc(C(=O)N=C4N=c5ccccc5=N4)cc3c2O)cc1` [Compound Z27664836], the “First screening IR (inhibition rate)” value was -4%.
For `O=C(Nc1nc2ccccc2[nH]1)c1ccc(N2CCCC2=O)cc1` [Compound Z27664887], the “First screening IR (inhibition rate)” value was 8%.
With `CC(=O)c1cccc(OCC(=O)Nc2nc3ccccc3[nH]2)c1` [Compound Z27665121] the “First screening IR (inhibition rate)” value was -6%.
In the case of `O=C(COc1ccc2ccccc2c1)Nc1nc2ccccc2[nH]1` [Compound Z27666510], the “First screening IR (inhibition rate)” value was 8%.
With `COc1ccc2c(c1)c(CC(=O)N1CCN(Cc3ccccc3)CC1)c(C)n2C(=O)c1ccc(Cl)cc1` [Compound Z27764077] the “First screening IR (inhibition rate)” value was 10%.
In the case of `Cc1ccc(C)c(N2C(=O)c3ccc(C(=O)Nc4ccc(N5CCN(C)CC5)cc4C)cc3C2=O)c1` [Compound Z27972425], the “First screening IR (inhibition rate)” value was 8%.
For `COc1ccc(CN2C(=O)c3ccccc3C2=O)cc1C(=O)Nc1ccc(N2CCN(C)CC2)cc1C` [Compound Z27972767], the “First screening IR (inhibition rate)” value was 17%.
In the case of `COc1ccc(-c2cc(C(=O)Nc3ccc(N4CCN(C)CC4)cc3C)c3ccccc3n2)cc1OC` [Compound Z27974061], the “First screening IR (inhibition rate)” value was 3%.
With `Cc1nn(Cc2ccc(F)cc2)c2sc(C(=O)Nc3ccc(N4CCOCC4)cc3N3CCOCC3)cc12` [Compound Z28027525] the “First screening IR (inhibition rate)” value was 3%.
In the case of `O=C(Nc1ccc(N2CCOCC2)cc1N1CCOCC1)c1ccc(N2C(=O)CCC2=O)cc1` [Compound Z28028679], the “First screening IR (inhibition rate)” value was -4%.
For `Cc1ccc(-n2nc(C)c3c(C(=O)Nc4nc(CN5CCOCC5)cs4)cc(-c4ccccc4)nc32)cc1` [Compound Z28032810], the “First screening IR (inhibition rate)” value was -1%.
`Cc1cc(C)c(NC(=O)c2cn3c4c(c(N5CCN(C)CC5)c(F)cc4c2=O)OCC3C)c(C)c1` (centres unmarked) [Compound Z28129480] was tested, and the “First screening IR (inhibition rate)” value was 9%.
With `Cc1nc2ccc(NC(=O)c3cc4ccccc4oc3=O)cc2s1` [Compound Z28296849] the “First screening IR (inhibition rate)” value was 13%.
For `CCOc1ccc(CCNC(=O)c2cc3ccccc3[nH]2)cc1OCC` [Compound Z28450151], the “First screening IR (inhibition rate)” value was -5%.
For `CN1CCC(N(C)S(=O)(=O)c2ccc(NC(=O)Cc3ccc(F)cc3)cc2)CC1` [Compound Z28459327], the “First screening IR (inhibition rate)” value was 13%.
In the case of `Cc1c(C(=O)Nc2ccnn2C2CCCC2)oc2c(Cl)cccc12` [Compound Z28468306], the “First screening IR (inhibition rate)” value was 0%.
For `CC(NC(=O)CCc1nc2ccccc2c(=O)[nH]1)c1cccc(C(F)(F)F)c1` (centres unmarked) [Compound Z28541828], the “First screening IR (inhibition rate)” value was -5%.
For `CC(NC(=O)c1ccc2nc[nH]c2c1)c1ccc(F)c(F)c1` (centres unmarked) [Compound Z28547957], the “First screening IR (inhibition rate)” value was -1%.
For `O=C(Nc1nnc(SCc2ccc(F)cc2)s1)c1cccnc1Cl` [Compound Z28653555], the “First screening IR (inhibition rate)” value was 3%.
`N#Cc1ccc(C(=O)Nc2nc(-c3ccc(F)c(F)c3)cs2)cc1` [Compound Z28714833] was tested, and the “First screening IR (inhibition rate)” value was 16%.
With `CCC(NC(=O)c1cc2c(cc1Cl)N1CCCCCC1=NS2(=O)=O)c1ccc(C)cc1` (centres unmarked) [Compound Z28877665] the “First screening IR (inhibition rate)” value was 2%.
`O=C(Cc1ccc(F)cc1)N1CCN(S(=O)(=O)Cc2ccccc2)CC1` [Compound Z28905033] was tested, and the “First screening IR (inhibition rate)” value was -2%.
In the case of `CCCn1c(NC(=O)c2ccc3c(c2)NC(=O)C(C)S3)nc2ccccc21` (centres unmarked) [Compound Z29076459], the “First screening IR (inhibition rate)” value was 51%.
With `N#Cc1ccsc1NC(=O)CCCSc1nc2ccccc2[nH]1` [Compound Z29082077] the “First screening IR (inhibition rate)” value was 16%.
With `CCN(CC)CCn1c(NC(=O)c2cc3c(C)nn(-c4ccc(Cl)cc4)c3s2)nc2ccccc21` [Compound Z29249972] the “First screening IR (inhibition rate)” value was -12%.
In the case of `CCN(c1ccccc1)S(=O)(=O)c1ccc(C(=O)Nc2ccc(S(=O)(=O)N(C)C)cc2)cc1` [Compound Z29267150], the “First screening IR (inhibition rate)” value was 2%.
For `Cc1cnc(NC(=O)CCCc2nc3ccccc3c(=O)[nH]2)s1` [Compound Z29324663], the “First screening IR (inhibition rate)” value was 9%.
For `Cc1nn(CC(C)C)c2sc(C(=O)Nc3nc(-c4ccccn4)cs3)cc12` [Compound Z29467100], the “First screening IR (inhibition rate)” value was 0%.
In the case of `CC(C)(C)C1CCC(C(=O)Nc2nc(-c3ccccn3)cs2)CC1` (centres unmarked) [Compound Z29467784], the “First screening IR (inhibition rate)” value was 7%.
For `COc1cccc2cc(C(=O)N3CCN(S(=O)(=O)c4ccccc4C(F)(F)F)CC3)c(=O)oc12` [Compound Z29531247], the “First screening IR (inhibition rate)” value was 18%.
